Patent publication US8709396B2, “Method and composition for attracting arthropods by volatizing an acid” (Premark FEG L.L.C., priority 2002, dated 2014)

Tested on: Aedes aegypti (AE) mosquitoes
Experiment: olfactometer two-stimulus choice test, average percent of mosquitoes attracted
Format: in vivo
Conditions: for attraction of mosquitoes, result in words: olfactometer, AE mosquitoes, summary statements of the text
Method: 100 Aedes aegypti (AE) mosquitoes were placed into an olfactometer unit. For each test, the mosquitoes were exposed to two sets of stimuli for a collection period of 3 minutes. The mosquitoes could choose between the stimuli or not respond.
For the first test, ferric chloride hexahydrate was impregnated on diatomaceous earth and was activated with a moisture containing substance to form the first stimulus center. This material released water and trace amounts of hydrochloric acid, HCl. The second stimulus center in this test was a blank (no chemical stimulus).
For the second test, dry carbon dioxide was fed at 5 ml/min from a standard gas cylinder as the first stimulus center. The second stimulus center in this test was a blank (no chemical stimulus).
For the third test, ferric chloride hexahydrate was impregnated on diatomaceous earth and was activated with a moisture containing substance to form the first stimulus center. This material released water and trace amounts of hydrochloric acid, HCl. The second stimulus center was dry carbon dioxide fed at 5 ml/min from a standard gas cylinder.
As with Example 1, 100 AE mosquitoes were placed into an olfactometer unit. For each test, the mosquitoes were exposed to two sets of stimuli for a collection period of 3 minutes. The mosquitoes could choose between the stimuli or not respond.
For the first test, dry carbon dioxide was fed at 5 ml/min from a standard gas cylinder as the first stimulus center. The second stimulus center in this test was a blank (no chemical stimulus).
For the second test, ferric chloride hexahydrate impregnated on diatomaceous earth and sodium bicarbonate powder were contained in a sachet. The sachet was activated by combining the two powders stimulating a chemical reaction that released carbon dioxide, water and trace amounts of hydrochloric acid, forming the first stimulus center. The reaction produces by-product water that stimulates hydrochloric acid production from the ferric chloride. The sachet was designed to release CO2 at a rate of 5 ml/min over the collection period. The second stimulus center in this test was a blank (no chemical stimulus).
For the third test, a sachet containing ferric chloride hexahydrate impregnated on diatomaceous earth and sodium bicarbonate powder, similar to the sachet used in the second test, was activated with a moisture-containing substance to release carbon dioxide water and trace amounts of hydrochloric acid, forming the first stimulus center. The reaction produces by-product water that stimulates hydrochloric acid production from the ferric chloride. The second stimulus center was carbon dioxide fed at 5 ml/min from a standard gas cylinder.
As with Examples 1 and 2, 100 AE mosquitoes were placed into an olfactometer unit. For each test, the mosquitoes were exposed to two sets of stimuli for a collection period of 3 minutes. The mosquitoes could choose between the stimuli or not respond.
For the first test, ferric chloride hexahydrate impregnated on a diatomaceous earth was activated with a moisture containing substance to form the first stimulus center. This material released water and trace amounts of hydrochloric acid, HCl. The second stimulus center in this test was a blank (no chemical stimulus).
The sachet was activated by combining the two powders stimulating a chemical reaction that released carbon dioxide, water and trace amounts of hydrochloric acid, forming the first stimulus center. The reaction produces by-product water that stimulates hydrochloric acid production from the ferric chloride. The sachet was designed to release carbon dioxide at a rate of 5 ml/min. The second stimulus center in this test was a blank.
For the third test, a sachet identical to that used in the second test and containing ferric chloride hexahydrate impregnated on diatomaceous earth and sodium bicarbonate powder was activated, forming the first stimulus center.

Compound: O=C=O [CO2 (Dry), carbon dioxide]
- Stimulant 2 - Avg. % attracted (100 AE mosquitoes, 3 min, first stimulus center Activated Ferric Chloride): 12%
- Stimulant 2 - Avg. % attracted (100 AE mosquitoes, 3 min, first stimulus center CO2/HCl/H2O Sachet): 2%
- Stimulant 1 - Avg. % attracted (100 AE mosquitoes, 3 min collection, second stimulus center blank (Examples 1-3)): 21%
- Stimulant 2 - Avg. % attracted (Example 4: CO2 5 mL/min, 3 min, first stimulus center CO2 flowing over water surface): 7%
- Stimulant 1 - Avg. % attracted (Example 4: dry CO2 5 mL/min through tube or cartridge, 100 AE mosquitoes, 3 min, second stimulus center blank): 15%
- attraction of mosquitoes, result in words (listed as CO2 (dry)): is an attractant for mosquitoes
- attraction of mosquitoes, result in words (listed as carbon dioxide): did not draw significant numbers
